What is called inhibition is the percentage by which the read-out fell short of the control. As usually defined, the % Inhibition is the relative decrease from the control value, in per cent.

Molecules are shown by their SMILES.

The target of one test is T1, Rat liver microsomal squalene synthase (Rattus norvegicus, UniProt Q02769).
T1 construct: Rat liver microsomes, the source of enzyme, were prepared; from tissue; host or cells: rat liver microsomes
T1 sequence (Q02769 1-416): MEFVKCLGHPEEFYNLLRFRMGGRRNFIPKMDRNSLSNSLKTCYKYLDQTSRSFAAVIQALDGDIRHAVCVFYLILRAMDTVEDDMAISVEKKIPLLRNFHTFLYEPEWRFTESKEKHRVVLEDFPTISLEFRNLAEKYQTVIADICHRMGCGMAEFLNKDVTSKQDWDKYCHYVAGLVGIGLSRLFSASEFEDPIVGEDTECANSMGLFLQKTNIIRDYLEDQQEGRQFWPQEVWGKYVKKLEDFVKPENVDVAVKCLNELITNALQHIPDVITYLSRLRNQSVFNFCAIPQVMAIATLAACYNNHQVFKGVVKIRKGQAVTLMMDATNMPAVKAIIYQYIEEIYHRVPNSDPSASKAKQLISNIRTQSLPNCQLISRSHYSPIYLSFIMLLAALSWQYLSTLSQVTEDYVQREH
In words: In vitro Inhibition of Squalene Synthase (rat liver microsomal, radioactive farnesyl diphosphate substrate). It is filed as biochemical. Particulars: 0.15 μM (footnote *); rat liver microsomes. (In general: Liver microsomes are vesicles of endoplasmic reticulum, rich in cytochrome P450 enzymes.)
`CC(NC(=O)C1C(C(=O)O)C(C(=O)O)C1C(=O)O)C(Cc1ccc(Cl)cc1)c1ccc(-c2ccccc2)cc1` [Example 29, (1α,2α,3α,4α)-4-[N-{(2S,3R)-4-(4-chlorophenyl)-3-(4-biphenylyl)-2-butyl}aminocarbonyl]cyclobutane-1,2,3-tricarboxylic acid]: the inhibition at 0.15 µM was determined as 81%.

For a further test, the target named is T2, Rat brain protein farnesyltransferase (Rattus norvegicus, UniProt Q02293+Q04631).
T2 construct: Rat brain protein farnesyltransferase activity was measured; from tissue; host or cells: rat brain; partially purified by steps one through three of Reiss et al., Cell 62:81-88 (1990)
Kind of test: In vitro Inhibition of Protein Farnesyltransferase (scintillation proximity assay, biotin-K Ras B fragment). It is filed as biochemical. Particulars: rat brain enzyme. As to the method: In vitro inhibition of protein farnesyltransferase may be measured by the following procedure. (Procedures for determination of the inhibition of farnesylation of the oncogene protein Ras are described by Goldstein, et al., J. Biol. Chem., 266:15575-15578 (1991) and by Singh in U.S. Pat. No. 5,245,061 both of which are incorporated herein by reference.)
Rat brain protein farnesyltransferase activity was measured using an Amersham Life Science commercial scintillation proximity assay kit and substituting a biotin-K Ras B fragment (biotin-Lys-Lys-Ser-Lys-Thr-Lys-Cys-Val-lle-Met-CO2 H), 0.1 μM final concentration, for the biotin-lamin substrate provided by Amersham. The enzyme was purified according to Reiss, Y., et al., Cell, 62:81-88 (1990), utilizing steps one through three. The specific activity of the enzyme was approximately 10 nmol substrate farnesylated/mg enzyme/hour. […]
Background: SPA uses beads or plates that emit light when radiolabelled molecules are held near them.
For `O=C(OCc1ccccc1)[C@@H]1[C@H](C(=O)O)[C@@H](C(=O)OCc2ccccc2)[C@H]1C(=O)N(Cc1ccccc1)Cc1ccc(Oc2ccccc2)cc1` (relative stereo) [Example 3, (1α,2β,3β,4α)-1-[N-Benzyl-N-(4-phenoxybenzyl)aminocarbonyl]-2,4-di(benzyloxycarbonyl)cyclobutane-3-carboxylic acid], the inhibition at 1 µM came out at 45%.
Same read-out and setting: for `O=C(O)[C@@H]1[C@H](C(=O)O)[C@@H](C(=O)O)[C@H]1C(=O)N(Cc1ccccc1)Cc1ccc(Oc2ccccc2)cc1` (relative stereo) [Example 4, (1α,2β,3β,4α)-1-[N-Benzyl-N-(4-phenoxybenzyl)aminocarbonyl]cyclobutane-2,3,4-tricarboxylic acid] the value was 99%.
The same measure, in the same setting: with `CC(Cc1ccccc1)C(O)CCCN(Cc1ccccc1)C(=O)C1C(C(=O)O)C(C(=O)O)C1C(=O)O` (stereo not drawn) [Example 1, (1α,2β,3β,4α)-1-[N-Benzyl-N-{(4S*,5S*)-(4-hydroxy-5-methyl)-6-phenylhexyl}aminocarbonyl]cyclobutane-2,3,4-tricarboxylic acid] the figure was 92%; with `O=C(OCc1ccccc1)[C@@H]1[C@H](C(=O)O)[C@@H](C(=O)OCc2ccccc2)[C@H]1C(=O)N(Cc1ccc(Oc2ccccc2)cc1)Cc1cccs1` (relative stereo) [Example 5, (1α,2β,3β,4α)-1-[N-(Thien-2-ylmethyl)-N-(4-phenoxybenzyl)aminocarbonyl]-2,4-di(benzyloxycarbonyl)cyclobutane-3-carboxylic acid], 21%; with `O=C(O)[C@@H]1[C@H](C(=O)O)[C@@H](C(=O)O)[C@H]1C(=O)N(Cc1ccc(Oc2ccccc2)cc1)Cc1cccs1` (relative stereo) [Example 6, (1α,2β,3β,4α)-1-[N-(Thien-2-ylmethyl)-N-(4-phenoxybenzyl)aminocarbonyl]cyclobutane-2,3,4-tricarboxylic acid], 89%.
Take `COC(=O)[C@H]1[C@@H](C(=O)O)[C@H](C(=O)N(Cc2ccccc2)Cc2ccc(Oc3ccccc3)cc2)[C@@H]1C(=O)O` (relative stereo) [Example 8, (1α,2β,3β,4α)-1-[N-Benzyl-N-(4-phenoxybenzyl)aminocarbonyl]-3-(methyloxycarbonyl)cyclobutane-2,4-dicarboxylic acid]: the inhibition at 1 µM was determined as 79%.

For another test, the target named is T1, Rat liver microsomal squalene synthase. In words: In vitro Inhibition of Squalene Synthase (rat liver microsomal, radioactive farnesyl diphosphate substrate). In kind it is biochemical. Particulars: rat liver microsomes. As to the method: In vitro inhibition of squalene synthase may be measured by the following procedure.
Rat liver microsomal squalene synthase activity was measured using radioactive farnesyl diphosphate as a substrate and quantitating squalene synthesis by counting the radioactive squalene formed.
Rat liver microsomes, the source of enzyme, were prepared according to the method of Gillies, P. J., et al., Exp. Molc. Pathol. 44: 329-339 (1986), a modification of the procedure of Erickson, S. K., and Cooper, A. D., Metabolism, 29: 991-996 (1980). Approximately 30 μg of microsomal protein was incubated for 10 minutes at 37° C. with […] of ^3 H-farnesyl diphosphate, 49 mCi/mmol, and test compound in the presence of squalene (2 μL), Mg++, KF, reduced B-nicotinamide adenine dinucleotide phosphate, dithiothreitol, and K2 PO4, pH 7.35, in a total volume of 200 μL. Oxygen was excluded from the closed incubation tube by degassing with nitrogen. The reaction was terminated by the addition of ethanolic KOH and after degassing with N2, the microsomal membranes were solubilized by heating at 60° C. for 30 minutes. The squalene was extracted into hexane, and the squalene was separated from all other radioactive molcules by passage over an activated alumina column. The solution was collected in scintillation vials, evaporated to dryness, liquid scintillation fluid was added, and the radioactivity was determined in a liquid scintillation counter. The percent inhibition at a dose of 1 μM compared to controls with no test compound was determined.
`CC(NC(=O)[C@H]1C[C@H](C(=O)O)[C@H]1C(=O)O)C(Cc1ccc(Cl)cc1)c1ccc(-c2ccccc2)cc1` (relative stereo) [Example 34, (1β,2α,3α)-3-[N-{(2S,3R)-4-(4-chlorophenyl)-3-(4-biphenylyl)-2-butyl}aminocarbonyl]cyclobutane-1,2-dicarboxylic acid]: the inhibition at 1 µM was determined as 94%.
In the case of `COC(=O)[C@@H]1[C@H](C(=O)O)[C@@H](C(=O)O)[C@H]1C(=O)N[C@@H](C)[C@@H](Cc1ccc(Cl)c(Cl)c1)OC(=O)c1ccc2ccccc2c1` [Example 23, (1S,2R,3S,4R)-3-Methoxycarbonyl-4-[N-{(2S,3R)-4-(3,4-dichlorophenyl)-3-(2-naphthoyloxy)-2-butyl}aminocarbonyl]cyclobutane-1,2-dicarboxylic acid], the inhibition at 1 µM amounted to 98%.
`O=C(O)[C@H]1[C@H](C(=O)O)[C@H](C(=O)O)[C@H]1C(=O)N(Cc1ccc(Oc2ccccc2)cc1)Cc1ccc(Cl)c(Cl)c1` (relative stereo) [Example 46]: the inhibition at 1 µM was determined as 53%.
Take `C[C@H](NC(=O)C1CC(CO)C1C(=O)[O-])[C@H](Cc1ccc(Cl)cc1)c1ccc(-c2ccccc2)cc1.[Na+]` (mixture of isomers) [Example 41, (±)-(1α,2β,4α)-2-[N-{(2S,3R)-4-(4-Chlorophenyl)-3-(4-biphenylyl)-2-butyl}aminocarbonyl]-4-hydroxymethylcyclobutane-1-carboxylic acid sodium salt]: the “% Inhibition at 1 μM” value is 80%.
For the molecule `COC(=O)[C@H]1[C@@H](C(=O)O)[C@H](C(=O)O)[C@@H]1C(=O)N[C@@H](C)[C@@H](Cc1ccc(Cl)c(Cl)c1)OC(=O)c1ccc2ccccc2c1` [Example 24], the inhibition at 1 µM was 27%.
As to `CC(C=CCCCN(Cc1ccccc1)C(=O)C1C(C(=O)O)C(C(=O)O)C1C(=O)O)CCCc1ccccc1` [Example 45, (1α,2α,3β,4β)-4-{N-Benzyl-N-[(R)-6-methyl-9-phenyl-(E)-4-nonenyl]aminocarbonyl}cyclobutane-1,2,3-tricarboxylic acid], the inhibition at 1 µM amounted to 67%.
The same measure, in the same setting: with `C[C@H](NC(=O)[C@H]1[C@@H](C(=O)O)[C@H](C(=O)O)[C@@H]1C(=O)O)[C@@H](Cc1ccc(Cl)c(Cl)c1)OC(=O)c1ccc2ccccc2c1` [Example 26, (1R,2R,3R,4S)-4-[N-{(2S,3R)-4-(3,4-Dichlorophenyl)-3-(2-naphthoyloxy)-2-butyl}aminocarbonyl]cyclobutane-1,2,3-tricarboxylic acid] the figure was 52%; with `COC(=O)[C@@H]1[C@@H](C(=O)O)[C@@H](C(=O)O)[C@@H]1C(=O)N[C@@H](C)[C@@H](Cc1ccc(Cl)c(Cl)c1)OC(=O)c1ccc2ccccc2c1` [Example 27, (1S,2S,3S,4S)-3-Methoxycarbonyl-4-[N-{(2S,3R)-4-(3,4-dichlorophenyl)-3-(2-naphthoyloxy)-2-butyl}aminocarbonyl]cyclobutane-1,2-dicarboxylic acid], 98%; with `C[C@H](NC(=O)C1CCC1C(=O)O)[C@H](Cc1ccc(Cl)cc1)c1ccc(-c2ccccc2)cc1` (stereo partly drawn) [Example 37, 2-[N-{(2S,3R)-4-(4-Chlorophenyl)-3-(4-biphenylyl)-2-butyl}aminocarbonyl]cyclobutane-1-carboxylic acid], 90%.
On to `O=C(O)[C@H]1[C@H](C(=O)O)[C@H](C(=O)O)[C@H]1C(=O)N(CCCCCCCCCCc1ccccc1)Cc1ccccc1` (relative stereo) [Example 35, (1β,2β,3α,4α)-4-[N-Benzyl-N-(10-phenyldecyl)aminocarbonyl]cyclobutane-1,2,3-tricarboxylic acid], for which the inhibition at 1 µM was determined as 47%.
Same read-out and setting: with `CCCN(CCCC=CC(C)CCCc1ccccc1)C(=O)C1C(C(=O)O)C(C(=O)O)C1C(=O)O` [Example 44, (1α,2α,3β,4β)-4-{N-Propyl-N-[(R)-6-methyl-9-phenyl-(E)-4-nonenyl]aminocarbonyl}cyclobutane-1,2,3-tricarboxylic acid] the figure was 25%; with `C[C@H](NC(=O)[C@H]1[C@H](C(=O)O)[C@H](C(=O)O)[C@H]1C(=O)O)[C@@H](Cc1ccc(Cl)c(Cl)c1)OC(=O)c1ccc2ccccc2c1` [Example 25, (1S,2S,3S,4R)-4-[N-{(2S,3R)-4-(3,4-Dichlorophenyl)-3-(2-naphthoyloxy)-2-butyl}aminocarbonyl]cyclobutane-1,2,3-tricarboxylic acid], 35%.
Still for that read-out and setting: with `CCCN(CCCC(OC(=O)c1ccc2ccccc2c1)C(C)Cc1ccccc1)C(=O)C1C(C(=O)O)C(C(=O)O)C1C(=O)O` (stereo not drawn) [Example 43, (1α,2β,3β,4α)-4-{N-Propyl-N-[(4S*,5S*)-(5-methyl-4-napthoyloxy)-6-phenylhexyl]aminocarbonyl}cyclobutane-1,2,3-tricarboxylic acid] the figure was 63%.

Values taken from US5831115A, “Inhibitors of squalene synthase and protein farnesyltransferase” (Abbott Laboratories, priority 1996, dated 1998).
